# Experimental data published in article PMC8766838, “Discovery of Small Molecule NSC290956 as a Therapeutic Agent for KRas Mutant Non-Small-Cell Lung Cancer” (Frontiers in Pharmacology, 2022).
# pKd: −log10 of the molar value.
# Tests used:
# [1] = target: T1, HRasG60A (Homo sapiens, UniProt P01112, G60A); assay: SPR (steady-state); circular dichroism in support; assay type: binding
# T1 construct: gene HRAS
# [2] = target: T2, KRas (Homo sapiens, UniProt P01116, G12S); assay: CETSA in A549 cells ([…]°C stabilization at […]); assay type: cell-based
# T2 construct: endogenous, A549 cells
# T1 sequence (P01112 1-166 G60A): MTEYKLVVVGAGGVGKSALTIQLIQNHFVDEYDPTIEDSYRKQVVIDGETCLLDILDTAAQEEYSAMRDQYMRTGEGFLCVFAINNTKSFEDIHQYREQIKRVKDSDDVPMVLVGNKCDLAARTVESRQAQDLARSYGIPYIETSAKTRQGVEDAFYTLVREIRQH
smiles,measurement,setting,value
"O=C1CSC2(CCN(CCCN3c4ccccc4Sc4ccc(Cl)cc43)CC2)N1 [NSC290956, 1-Thia-4,8-diazaspiro[4.5]decan-3-one,8-[3-(2-chloro-10H-phenothiazin-10-yl)propyl]]",pKd,[1],4.67
same,CETSA in A549 cells (4-6°C stabilization at 25 μM),[2],target engagement of NSC290956 in KRas-addicted H358 (KRasG12C) and A549 (KRasG12S) cell lines
